Assay results as given in patent US8937048B2, “Anti-angiogenic compounds” (Covx Technologies Ireland, Limited, priority 2008, dated 2015).
pIC50: −log10 of the molar value. Where a SMILES comes first, the peptide text is derived from it. Bridges are numbered along the chain shown (N, C = ends).

The molecules below were run against T1, recombinant human VEGF165 (Homo sapiens, UniProt P15692) (assay: VEGF peptide binding assay (competition ELISA, VEGF165 binding to coated VEGFR2/Fc)).
T1 sequence (P15692 27-191 isoform P15692-4): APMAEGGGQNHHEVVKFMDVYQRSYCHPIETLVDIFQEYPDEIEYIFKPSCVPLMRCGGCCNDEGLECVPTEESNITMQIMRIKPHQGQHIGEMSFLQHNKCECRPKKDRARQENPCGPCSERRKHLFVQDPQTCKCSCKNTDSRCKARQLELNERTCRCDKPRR
Description: High-binding half-well 96-well plates (Costar #3690) were coated with recombinant human VEGFR2/Fc (50 ng/well) in 50 μl PBS, and incubated at 4° C. overnight. After washing the plates three times with 1× washing buffer (KPL Cat#50-65-00) and blocking with Superblock (Scytek #AAA500) at room temperature (RT) for 1 hour, VEGF-peptides of the invention were serially diluted (concentrations: 0.128-10,000 nM) in the presence of 25 ng/ml of recombinant human VEGF165 in […] Superblock, and were then added to the 96-well plates and incubated at RT for 1 hour. Peptides of the invention tested in this fashion were all capped at the amino terminus with a C(O)CH3 group and at the carboxyl terminus with a NH2 group. The plates were then washed three times with washing buffer, and a diluted (1:500) biotinylated anti-human VEGF antibody (R&D systems, Cat# BAF293) was added and incubated at RT for 2 hours. After washing the plates, streptavidin HRP conjugate (1:200 in Superblock) (R&D systems, Cat# DY998) was added to detect the bound anti-VEGF antibody, followed by addition of tetramethylbenzidine (TMB) substrate (Pierce, Cat#34021) for color development. The reaction was stopped with 2 M H2SO4. OD450 was measured using SpectraMax (Molecular Device) with a correction wavelength of 540 nm. The data were analyzed using Prism software. OD450 values were plotted as a function of the concentrations of the VEGF peptides. IC50 values, indicative of the potency of the VEGF peptides to inhibit VEGF-VEGFR2 interaction, were obtained using a sigmoid dose-response curve fit in Prism.
`CC[C@H](C)[C@@H]1NC(=O)[C@H](CC(=O)O)NC(=O)[C@@H](NC(=O)[C@H](CC(N)=O)NC(=O)[C@@H]2CCCN2C(=O)[C@H](CCC(=O)O)NC(=O)[C@@H](NC(C)=O)C(C)C)CSSC[C@@H](C(=O)N[C@@H](Cc2ccccc2)C(=O)N[C@@H](CCC(=O)O)C(=O)N[C@@H](CCCNC(=N)N)C(=O)N[C@@H](CC(C)C)C(=O)N[C@@H](CCSC)C(=O)N[C@@H](CCCCN)C(N)=O)NC(=O)[C@H](C(C)C)NC(=O)[C@H](Cc2c[nH]c3ccccc23)NC(=O)[C@H](C(C)C)NC(=O)[C@H](Cc2c[nH]c3ccccc23)NC(=O)[C@H](CCSC)NC(=O)[C@H](C(C)C)NC(=O)[C@H](Cc2c[nH]cn2)NC1=O` [Compound 38, VEPNCDIHVMWVWVCFERLMK] (Ac-VEPNCDIHVMWVWVCFERLMK-NH2; disulfide 5-15 (inferred)) gave a pIC50 of 7.03. `CC[C@H](C)[C@@H]1NC(=O)[C@H](CC(=O)O)NC(=O)[C@@H](NC(=O)[C@H](CC(N)=O)NC(=O)[C@@H]2CCCN2C(=O)[C@H](CCC(=O)O)NC(=O)[C@@H](NC(C)=O)C(C)C)CSSC[C@@H](C(=O)N[C@@H](Cc2ccccc2)C(=O)N[C@@H](CCC(=O)O)C(=O)N[C@@H](CCCNC(=N)N)C(=O)N[C@@H](CC(C)C)C(=O)N[C@@H](CCSC)C(=O)N[C@@H](CCCNC(=N)N)C(=O)N[C@@H](CC(C)C)C(=O)N[C@H](C(N)=O)[C@@H](C)O)NC(=O)[C@H](CCC(=O)O)NC(=O)[C@H](Cc2c[nH]c3ccccc23)NC(=O)[C@H](C(C)C)NC(=O)[C@H](Cc2c[nH]c3ccccc23)NC(=O)[C@H](CCSC)NC(=O)[C@H](C(C)C)NC(=O)[C@H](Cc2c[nH]cn2)NC1=O` [Compound 46, VEPNCDIHVMWVWECFERLMRLT] (Ac-VEPNCDIHVMWVWECFERLMRLT-NH2; disulfide 5-15 (inferred)) was tested, and the pIC50 was 7.36. `CC[C@H](C)[C@@H]1NC(=O)[C@H](CC(=O)O)NC(=O)[C@@H](NC(=O)[C@H](CC(N)=O)NC(=O)[C@@H]2CCCN2C(=O)[C@H](CCC(=O)O)NC(=O)[C@@H](NC(C)=O)C(C)C)CSSC[C@@H](C(=O)N[C@@H](Cc2ccccc2)C(=O)N[C@@H](CCC(=O)O)C(=O)N[C@@H](CCCNC(=N)N)C(=O)N[C@@H](CC(C)C)C(=O)N[C@@H](Cc2ccc(O)cc2)C(=O)NCC(=O)N[C@@H](CC(C)C)C(=O)N[C@@H](CCC(=O)O)C(N)=O)NC(=O)[C@H](CCC(=O)O)NC(=O)[C@H](Cc2c[nH]c3ccccc23)NC(=O)[C@H](C(C)C)NC(=O)[C@H](Cc2c[nH]c3ccccc23)NC(=O)[C@H](CCSC)NC(=O)[C@H](C(C)C)NC(=O)[C@H](Cc2c[nH]cn2)NC1=O` [Compound 75, VEPNCDIHVMWVWECFERLYGLE] (Ac-VEPNCDIHVMWVWECFERLYGLE-NH2; disulfide 5-15 (inferred)) was tested, and the pIC50 was 8.52. With `CC[C@H](C)[C@@H]1NC(=O)[C@H](CC(=O)O)NC(=O)[C@@H](NC(=O)[C@H](CC(N)=O)NC(=O)[C@@H]2CCCN2C(=O)[C@H](CCC(=O)O)NC(=O)[C@@H](NC(C)=O)C(C)C)CSSC[C@@H](C(=O)N[C@@H](Cc2ccccc2)C(=O)N[C@@H](CCC(=O)O)C(=O)N[C@@H](CCCNC(=N)N)C(=O)N[C@@H](CC(C)C)C(=O)N[C@@H](Cc2ccccc2)C(=O)N[C@@H](CCCNC(=N)N)C(=O)N[C@@H](CCC(=O)O)C(=O)N[C@@H](C)C(N)=O)NC(=O)[C@H](C(C)C)NC(=O)[C@H](Cc2c[nH]c3ccccc23)NC(=O)[C@H](C(C)C)NC(=O)[C@H](Cc2c[nH]c3ccccc23)NC(=O)[C@H](CCSC)NC(=O)[C@H](C(C)C)NC(=O)[C@H](Cc2c[nH]cn2)NC1=O` [Compound 36, VEPNCDIHVMWVWVCFERLFREA] (Ac-VEPNCDIHVMWVWVCFERLFREA-NH2; disulfide 5-15 (inferred)) the pIC50 was 6.76. For `CC[C@H](C)[C@@H]1NC(=O)[C@H](CC(=O)O)NC(=O)[C@@H](NC(=O)[C@H](CC(N)=O)NC(=O)[C@@H]2CCCN2C(=O)[C@H](CCC(=O)O)NC(=O)[C@@H](NC(C)=O)C(C)C)CSSC[C@@H](C(=O)N[C@@H](Cc2ccccc2)C(=O)N[C@@H](CCC(=O)O)C(=O)N[C@@H](CCCNC(=N)N)C(=O)N[C@@H](CC(C)C)C(=O)N[C@H](C(=O)N[C@@H](CCCCN)C(N)=O)C(C)C)NC(=O)[C@H](CCC(=O)O)NC(=O)[C@H](Cc2c[nH]c3ccccc23)NC(=O)[C@H](C(C)C)NC(=O)[C@H](Cc2c[nH]c3ccccc23)NC(=O)[C@H](CCSC)NC(=O)[C@H](C(C)C)NC(=O)[C@H](Cc2c[nH]cn2)NC1=O` [Compound 48, VEPNCDIHVMWVWECFERLVK] (Ac-VEPNCDIHVMWVWECFERLVK-NH2; disulfide 5-15 (inferred)), the pIC50 was 7.37. With `CC[C@H](C)[C@@H]1NC(=O)[C@H](CC(=O)O)NC(=O)[C@@H](NC(=O)[C@H](CC(N)=O)NC(=O)[C@@H]2CCCN2C(=O)[C@H](CCC(=O)O)NC(=O)[C@@H](NC(C)=O)C(C)C)CSSC[C@@H](C(=O)N[C@@H](Cc2ccccc2)C(=O)N[C@@H](CCC(=O)O)C(=O)N[C@@H](CCCNC(=N)N)C(=O)N[C@@H](CC(C)C)C(=O)N[C@@H](CC(C)C)C(=O)N[C@@H](CCCCN)C(N)=O)NC(=O)[C@H](CCC(=O)O)NC(=O)[C@H](Cc2c[nH]c3ccccc23)NC(=O)[C@H](C(C)C)NC(=O)[C@H](Cc2c[nH]c3ccccc23)NC(=O)[C@H](CCSC)NC(=O)[C@H](C(C)C)NC(=O)[C@H](Cc2c[nH]cn2)NC1=O` [Compound 67, VEPNCDIHVMWVWECFERLLK] (Ac-VEPNCDIHVMWVWECFERLLK-NH2; disulfide 5-15 (inferred)) the pIC50 was 8.00. `CC[C@H](C)[C@@H]1NC(=O)[C@H](CC(=O)O)NC(=O)[C@@H](NC(=O)[C@H](CC(N)=O)NC(=O)[C@@H]2CCCN2C(=O)[C@H](CCC(=O)O)NC(=O)[C@@H](NC(C)=O)C(C)C)CSSC[C@@H](C(=O)N[C@@H](Cc2ccccc2)C(=O)N[C@@H](CCC(=O)O)C(=O)N[C@@H](CCCNC(=N)N)C(=O)N[C@@H](CC(C)C)C(=O)N[C@@H](Cc2ccc(O)cc2)C(=O)NCC(=O)NCC(=O)NCC(N)=O)NC(=O)[C@H](C(C)C)NC(=O)[C@H](Cc2c[nH]c3ccccc23)NC(=O)[C@H](C(C)C)NC(=O)[C@H](Cc2c[nH]c3ccccc23)NC(=O)[C@H](CCSC)NC(=O)[C@H](C(C)C)NC(=O)[C@H](Cc2c[nH]cn2)NC1=O` [Compound 43, VEPNCDIHVMWVWVCFERLYGGG] (Ac-VEPNCDIHVMWVWVCFERLYGGG-NH2; disulfide 5-15) gave a pIC50 of 7.18. Molecule `CC[C@H](C)[C@@H]1NC(=O)[C@H](CC(=O)O)NC(=O)[C@@H](NC(=O)[C@H](CC(N)=O)NC(=O)[C@@H]2CCCN2C(=O)[C@H](CCC(=O)O)NC(=O)[C@@H](NC(C)=O)C(C)C)CSSC[C@@H](C(=O)N[C@@H](Cc2ccccc2)C(=O)N[C@@H](CCC(=O)O)C(=O)N[C@@H](CCCNC(=N)N)C(=O)N[C@@H](CC(C)C)C(=O)N[C@@H](CCSC)C(=O)N[C@@H](CCCNC(=N)N)C(=O)N[C@@H](CCC(=O)O)C(=O)N[C@@H](CC(C)C)C(N)=O)NC(=O)[C@H](CCC(=O)O)NC(=O)[C@H](Cc2c[nH]c3ccccc23)NC(=O)[C@H](C(C)C)NC(=O)[C@H](Cc2c[nH]c3ccccc23)NC(=O)[C@H](CCSC)NC(=O)[C@H](C(C)C)NC(=O)[C@H](Cc2c[nH]cn2)NC1=O` [Compound 63, VEPNCDIHVMWVWECFERLMREL] (Ac-VEPNCDIHVMWVWECFERLMREL-NH2; disulfide 5-15 (inferred)) has a pIC50 of 7.62.
